Here are results for two molecules from US20170290783A1, “Rabbit Maternal Pheromones to Enhance the Weight of Weaning Piglets” (Animal Biotech, LLC, priority 2016, published 2017).

Experiment [1] has as its system re-grouped, stressed pigs. Particulars: cited from earlier work.
Another experiment has as its system weaning piglets. In words: Post-weaning piglet performance (body weight, ADG, ADFI, G:F) after a single application of rabbit maternal pheromone to the nursery feeder. The class given is in vivo, pig. From the text: Piglets (n=120) were randomly selected from nursing sows. A total of 120 piglets, 60 males and 60 females, were weaned at approximately 3 weeks of age and transported for four hours before entering the nursery site. Piglets were housed in groups of three, single-sex (either barrows or gilts), and had ad libitum access to feed and water. A total of 40 pens (the experimental unit) were available; 10 each of male and female experiencing control or pheromone therapy. Space allowance was in excess of industry standards (0.6 m^2 per piglet). Body weight and feed intake were each measured once per week from commencement of weaning until 35 days after weaning.
Control and pheromone-treated piglets were housed in separate rooms, with no airflow between the rooms to ensure no cross contamination between air spaces. To expose piglets to the rabbit maternal pheromone, test piglet feeders received 25 mL of the trans-2-methyl-2-butenal solution (1 μg/mL in isopropyl alcohol) while the control piglet feeders received 25 mL of isopropyl alcohol only. Feeders were sprayed immediately before the arrival of piglets to the nursery site.
Half of the pigs and pens in each group were transported and half were moved directly from the farrowing crates to the adjacent nursery building. The experimental design was a completely random design with a two by two factorial arrangement of transport (or not) and trans-2-methyl-2-butenal or placebo control.
Average daily gain (ADG, kg. per day) was calculated from the body weights both weekly and over the entire period. Average daily feed intake (ADFI, kg. per pig per day) was calculated based on weekly feed consumption. Gain to Feed (G:F) was calculated each week and over the 28-day post-weaning period.
Data were analyzed using SAS software (SAS, 2012). PROC Univariate was used to establish that the overall ADG, ADFI and G:F ratio data were normally distributed. The general linear models procedure was used with pen as the experimental unit. There were 40 experimental units (pens) in total. The original model contained the factorial effects of (A) trans-2-methyl-2-butenal applied during transport or not, (B) trans-2-methyl-2-butenal applied to the nursery feeder or not, and (3) pig sex (barrow vs. gilt) and all possible interactions. […] A final simplified analysis was performed with only the effects of trans-2-methyl-2-butenal applied in the nursery or not with 20 pens per treatment.

With `C[C@]12CCC(=O)C[C@@H]1CC[C@@H]1[C@@H]2CC[C@]2(C)C=CC[C@@H]12` [Androstenone], the Pig aggressive behaviors entry in experiment [1] (pig, in vivo) was “reduced”. The Weight gain result in experiment [1] (re-grouped, stressed pigs) is on record as “temporarily improve”.
Take `C/C=C(\C)C=O` [trans-2-methyl-2-butenal]: the “Piglet body weight vs control” value with weaning piglets (14 days after weaning) is on record as “tended (P=0.06) to be heavier”; in the experiment on weaning piglets (at weaning and 7 days later, 25 mL of 1 μg/mL in isopropyl alcohol sprayed on feeder), “statistically similar”; with weaning piglets (days 21, 28 and 35 after weaning, P<0.05), “significantly heavier”. For the same molecule, the “G:F (gain to feed)” value in the experiment with weaning piglets (P>0.10 vs control) is “not influenced”. Also, the “Body weight at weaning” value in the experiment on weaning piglets (at weaning, pigs to experience treatment, control 6.5±0.06 kg, P>0.10) stood at 6.6 ± 0.025 kg. In the experiment on weaning piglets (both the 4 and 5 week period after weaning, P<0.05 vs control), the “Overall ADG (average daily gain)” value is given as “increase”. Besides, the “ADFI (average daily feed intake)” value with weaning piglets (during 4 weeks after weaning, P<0.05 vs control) was “increase”. Moreover, the “Stimulatory effect on feed intake” value with weaning piglets (first week after weaning) is on record as “very small (and not significant)”; in the experiment on weaning piglets (weeks two to five after weaning), “increases in magnitude”. For the same molecule, the “Improvement in body weight vs control” value with weaning piglets (five weeks after weaning, P=0.01) turned out to be 8.5%. Moreover, in the experiment with weaning piglets (five weeks after weaning, control 16.5±0.31 kg, P=0.01), the “Body weight five weeks after weaning” value is 17.9 ± 0.31 kg. Further, in the experiment on weaning piglets (single application to the feeder in the post-weaning environment), the “ADFI and ADG” value was “stimulate”. For the same molecule, the “Overall performance measures, effect of application during transport” value in the experiment on weaning piglets (transport application, P>0.10) was “not significant”. Also, in the experiment with weaning piglets (weeks 3, 5 and overall, P<0.05), the “Post-weaning ADG” value was “increased”. In addition, the ADFI result with weaning piglets (weeks 3 and 4 after weaning and overall 5-week growth period, P<0.05) was “higher”.
